EPA's ToxValDB 9.5 (doi:10.2903/j.efsa.2013.3269)
Values after ≈ are worked out from the molar mass of the structure shown. Values joined by “and” are separate entries in the source; they are usually repeats but may differ in a detail not shown here. Equal entries are not always repeated.

Legend:
Oryctolagus sp. = settings: developmental; development
Tagia sp. = settings: acute; duration: 14 days; mortality
Anas platyrhynchos = settings: oral, mortality
Oncorhynchus mykiss = settings: acute; duration: 96 hours; mortality
Colinus virginianus = settings: acute; oral; diet; mortality
Apis mellifera = settings: acute, duration: 48 hours, mortality
Aphidius rhopalosiphi = test: LR50; higher = less toxic; settings: acute; duration: 48 hours; mortality
Typhlodromus pyri = test: LR50; higher = less toxic; settings: acute; duration: 7 days; mortality

## CCc1cc(C)cc(CC)c1-c1c(OC(=O)C(C)(C)C)n2n(c1=O)CCOCC2 [Pinoxaden]
Rattus norvegicus; acute, oral, mortality
  LD50: > 5000 mg/kg-day
Rattus norvegicus; chronic, duration: 2 years, histopathology: nonneoplastic
  NOAEL: 10 mg/kg-day
Rattus norvegicus; reproduction developmental, body weight
  NOAEL: 250 mg/kg-day
Rattus norvegicus; reproduction developmental, oral, gavage, no effects
  NOAEL: 500 mg/kg-day
Oryctolagus sp.
  NOAEL: 30 mg/kg-day and 10 mg/kg-day
Tagia sp.
  LC50: > 1000 mg/kg
Anas platyrhynchos; acute, unspecified
  LD50: > 2250 mg/kg-day
Anas platyrhynchos; short-term, feed
  LC50: > 1800 mg/kg-day
Oncorhynchus mykiss
  LC50: 10.3 µg/mL (≈ 25.7 µM)
Colinus virginianus
  LC50: > 1570 mg/kg-day
Apis mellifera; dermal
  LD50: > 100 µg/piece
Apis mellifera; oral, unspecified
  LD50: > 200 µg/piece
Aphidius rhopalosiphi
  LR50: 6.22 g/ha
Typhlodromus pyri
  LR50: 1.81 g/ha
